{"source": "patent US9901624B2", "about": "“Methods and compositions for treating nephrogenic diabetes insipidus” (The United States of America as represented by the …, priority 2004, dated 2018)", "key": {"P2Y2 receptor [1]": {"target": "T1, P2Y2 receptor (Rattus norvegicus, UniProt P41232)", "T1 construct": "Freshly prepared IMCD-enriched fractions were incubated at 37.degree; C. under physiological conditions; from tissue; host or cells: rat kidney inner medulla / inner medullary collecting duct (IMCD) preparations", "T1 sequence (P41232 whole entry)": "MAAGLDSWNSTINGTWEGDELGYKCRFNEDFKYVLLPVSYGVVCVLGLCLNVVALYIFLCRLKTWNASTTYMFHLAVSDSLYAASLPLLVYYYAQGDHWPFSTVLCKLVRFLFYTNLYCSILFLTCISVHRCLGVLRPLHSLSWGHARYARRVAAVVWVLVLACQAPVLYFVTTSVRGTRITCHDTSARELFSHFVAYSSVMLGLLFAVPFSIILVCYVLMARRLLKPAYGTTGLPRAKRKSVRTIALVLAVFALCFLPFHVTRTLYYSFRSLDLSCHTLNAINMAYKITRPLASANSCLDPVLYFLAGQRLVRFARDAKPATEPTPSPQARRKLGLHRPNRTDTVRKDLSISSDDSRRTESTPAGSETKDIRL", "details": "reversible fashion; cited from earlier work"}, "P2Y4": {"target": "P2Y4 (Homo sapiens, UniProt P51582)", "sequence (P51582 whole entry)": "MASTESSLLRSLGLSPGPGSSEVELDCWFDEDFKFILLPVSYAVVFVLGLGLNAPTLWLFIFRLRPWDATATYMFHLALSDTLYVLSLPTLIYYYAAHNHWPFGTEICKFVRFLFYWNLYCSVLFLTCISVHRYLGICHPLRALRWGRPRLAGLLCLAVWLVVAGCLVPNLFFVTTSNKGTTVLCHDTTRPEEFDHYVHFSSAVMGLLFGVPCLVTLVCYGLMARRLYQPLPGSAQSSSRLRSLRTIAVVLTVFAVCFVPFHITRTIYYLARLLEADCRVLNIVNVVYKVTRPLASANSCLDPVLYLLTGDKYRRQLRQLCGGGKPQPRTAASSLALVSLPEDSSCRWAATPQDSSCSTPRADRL", "details": "cDNA library source: Human chromosome X; cited from earlier work"}, "P2Y11": {"target": "T2, P2Y11 (Homo sapiens, UniProt Q96G91)", "T2 sequence (Q96G91 1-374)": "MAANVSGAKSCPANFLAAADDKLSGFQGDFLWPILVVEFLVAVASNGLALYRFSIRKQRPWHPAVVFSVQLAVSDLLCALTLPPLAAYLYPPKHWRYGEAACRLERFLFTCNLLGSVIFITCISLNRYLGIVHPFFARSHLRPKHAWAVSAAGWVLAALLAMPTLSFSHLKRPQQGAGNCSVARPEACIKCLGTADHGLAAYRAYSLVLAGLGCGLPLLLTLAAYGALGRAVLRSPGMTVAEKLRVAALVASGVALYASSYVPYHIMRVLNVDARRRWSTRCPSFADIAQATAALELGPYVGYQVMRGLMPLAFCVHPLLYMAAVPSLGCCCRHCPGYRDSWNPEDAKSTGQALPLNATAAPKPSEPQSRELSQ", "details": "cDNA library source: Human placenta; cited from earlier work"}, "P2Y1 [2]": {"target": "P2Y1 (Rattus norvegicus, UniProt P49651)", "sequence (P49651 whole entry)": "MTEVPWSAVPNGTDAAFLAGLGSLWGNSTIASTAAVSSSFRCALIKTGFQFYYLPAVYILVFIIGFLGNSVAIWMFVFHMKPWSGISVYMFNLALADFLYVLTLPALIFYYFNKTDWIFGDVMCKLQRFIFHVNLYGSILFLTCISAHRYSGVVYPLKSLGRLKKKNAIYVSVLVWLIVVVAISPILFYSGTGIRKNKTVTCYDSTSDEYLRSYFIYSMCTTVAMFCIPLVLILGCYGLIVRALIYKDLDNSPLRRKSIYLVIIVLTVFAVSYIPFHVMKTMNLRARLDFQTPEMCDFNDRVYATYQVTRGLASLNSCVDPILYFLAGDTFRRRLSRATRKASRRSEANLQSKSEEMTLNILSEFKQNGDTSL", "details": "cited from earlier work"}, "P2Y1 [3]": {"target": "P2Y1 (Meleagris gallopavo, UniProt P49652)", "sequence (P49652 whole entry)": "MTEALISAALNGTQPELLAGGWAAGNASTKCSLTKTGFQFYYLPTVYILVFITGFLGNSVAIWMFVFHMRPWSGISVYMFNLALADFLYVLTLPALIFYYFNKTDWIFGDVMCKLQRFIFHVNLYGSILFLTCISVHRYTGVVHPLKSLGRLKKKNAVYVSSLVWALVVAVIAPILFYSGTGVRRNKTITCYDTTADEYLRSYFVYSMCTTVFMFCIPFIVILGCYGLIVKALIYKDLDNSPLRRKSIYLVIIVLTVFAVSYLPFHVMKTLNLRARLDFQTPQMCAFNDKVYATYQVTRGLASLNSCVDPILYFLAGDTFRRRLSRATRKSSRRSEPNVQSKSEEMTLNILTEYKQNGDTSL", "details": "cDNA library source: Turkey brain; cited from earlier work"}, "P2Y1 [4]": {"target": "P2Y1 (Gallus gallus, UniProt P34996)", "sequence (P34996 whole entry)": "as the sequence (P49652 whole entry) above, with S28T counted along it", "details": "cDNA library source: Chick brain; cited from earlier work"}, "[5]": {"details": "in vivo; cited from earlier work"}, "[6]": {"tested_on": "P2Y2 receptor-stimulated PGE2 release by IMCD", "experiment": "Apyrase treatment in rats: basal and ATPγS-stimulated ex vivo PGE2 release by IMCD", "parameters": "species or system Sprague-Dawley rats", "protocol": "(§1) It is non-toxic and safe to administer either intravenously or intraperitoneally. Two experiments were conducted. In one experiment Sprague-Dawley rats were divided into two groups (N=4 per group). One group was fed with regular rat chow, while the other was fed regular rat chow to which Lithium Chloride was added to a concentration of 40 mmol/kg wt of the food. Both groups were fed for 14 days without any other treatment. The second experiment was similar to the first one, except that potato apyrase (Sigma Chemical Co) was administered to both regular and lithium-added diet fed rats front day 7 to day 14 at a dose of 100 units/kg body wt. intraperitoneally, three times a day (˜8 hourly intervals). All rats had free access to drinking water. Twenty-four hour urine samples were collected from all rats on day 7 and 14 prior to euthanasia, and analyzed. All rats were euthanized on day 14, and IMCD suspensions were prepared. Basal and ATPγS-stimulated ex vivo PGE2 release by IMCD was determined as per the methods previously established."}, "[7]": {"experiment": "Apyrase treatment day 7 to 14 in lithium-fed and regular diet rats: urine flow", "type": "in vivo, Sprague-Dawley rats", "protocol": "as §1"}, "P2Y2 receptor [8]": {"tested_on": "P2Y2 receptor", "details": "chronic dDAVP infusion; cited from earlier work"}, "[9]": {"tested_on": "purinergic-driven PGE2 production by IMCD", "details": "normal rats chronically infused with dDAVP 20 ng/h; cited from earlier work"}, "V2 receptor": {"tested_on": "V2 receptor", "details": "chronic dDAVP infusion; cited from earlier work"}, "[10]": {"details": "control rats fed with regular diet"}}, "note": "Entries after “also recorded” stand apart in the source; their conditions may differ. Read-outs that look alike come from different tables or passages of the source."}
{"compound": "Nc1ncnc2c1ncn2[C@@H]1O[C@H](COP(=O)(O)OP(=O)(O)O)[C@@H](O)[C@H]1O", "note": "[ADP]", "values": [{"measurement": "AVP-stimulated osmotic water permeability (Pf)", "setting": "P2Y2 receptor [1]", "value": "not"}]}
{"compound": "Nc1ncnc2c1ncn2[C@@H]1O[C@H](COP(=O)(O)OP(=O)(O)OP(=O)(O)O)[C@@H](O)[C@H]1O", "note": "[ATP]", "values": [{"measurement": "Agonist activity", "setting": "P2Y4", "value": "UTP > UDP (ATP inactive)"}, {"measurement": "AVP-stimulated osmotic water permeability (Pf)", "setting": "P2Y2 receptor [1]", "value": "decreased"}]}
{"compound": "O=c1ccn([C@@H]2O[C@H](COP(=O)(O)OP(=O)(O)O)[C@@H](O)[C@H]2O)c(=O)[nH]1", "note": "[UDP]", "values": [{"measurement": "Agonist activity", "setting": "P2Y11", "value": "(UTP, UDP inactive)"}]}
{"compound": "O=c1ccn([C@@H]2O[C@H](COP(=O)(O)OP(=O)(O)OP(=O)(O)O)[C@@H](O)[C@H]2O)c(=O)[nH]1", "note": "[UTP]", "values": [{"measurement": "Agonist activity", "setting": "P2Y1 [2]; cDNA library source: Rat ileal myocytes", "value": "ATP (UTP inactive)"}, {"measurement": "Agonist activity", "setting": "P2Y11", "value": "(UTP, UDP inactive)"}, {"measurement": "AVP-stimulated osmotic water permeability (Pf)", "setting": "P2Y2 receptor [1]", "value": "decreased"}, {"measurement": "Agonist activity", "setting": "P2Y1 [3]", "value": "inactive)"}, {"measurement": "Agonist activity", "setting": "P2Y1 [4]", "value": "inactive)"}]}
{"compound": "COc1ccc2c(c1)c(CC(=O)O)c(C)n2C(=O)c1ccc(Cl)cc1", "note": "[indomethacin]", "values": [{"measurement": "polyuria of acquired NDI", "setting": "[5]", "value": "prevented the polyuria; also recorded: ameliorated"}]}
{"compound": "Nc1ncnc2c1ncn2[C@@H]1O[C@H](COP(=O)(O)CP(=O)(O)OP(=O)(O)O)[C@@H](O)[C@H]1O", "note": "[α,β-meATP]", "values": [{"measurement": "Agonist activity", "setting": "P2Y1 [2]; cDNA library source: Rat insulinoma cells", "value": "(α,β-meATP inactive)"}]}
{"compound": "apyrase", "values": [{"measurement": "P2Y2-mediated PGE2 release by IMCD", "setting": "[6]; [10]", "value": "did not change"}, {"measurement": "P2Y2 receptor-stimulated PGE2 release by IMCD", "setting": "[6]; lithium-fed rats, compared to apyrase-untreated lithium-fed rats", "value": "significantly decreased"}, {"measurement": "urine output", "setting": "[7]; [10]", "value": "did not change"}, {"measurement": "urine flow induced by lithium", "setting": "[7]; lithium-fed rats, apyrase day 7 to 14, 100 units/kg intraperitoneally three times a day", "value": "prevented further increase in the urine flow"}]}
{"compound": "dDAVP", "values": [{"measurement": "mRNA expression of P2Y2 receptor, down-regulated to", "setting": "P2Y2 receptor [8]", "value": 54, "unit": "%"}, {"measurement": "protein abundance of P2Y2 receptor, down-regulated to", "setting": "P2Y2 receptor [8]", "value": 49, "unit": "%"}, {"measurement": "purinergic-driven PGE2 production by IMCD", "setting": "[9]", "value": "significantly decreased"}, {"measurement": "expression of V2 receptor mRNA", "setting": "V2 receptor", "value": "did not change significantly"}]}
